The values below come from patent US20200316087A1, “NOVEL COMBINATION THERAPY FOR ANXIETY DISORDERS, EPILEPSY, AND PAIN” (priority 2017, published 2020).

The test system of one data set is 6 Hz-induced seizures. As to the kind of experiment: 6 Hz (44 mA) seizure model. The format is in vivo. As to conditions: mice; for Number protected/number tested: 2 hr post dosing. The text has this:
This seizure model is utilized to screen for drugs that might […] by other screening approaches. For example, the highly used anticonvulsant leviteracetam was effective in this test but not in the pentylenetetrazole assay. Adult, male mice were subjected to 6 Hz stimulation at 44 mA as originally described by Barton et al. (Epilepsy Res. 2001; 47:217-27) and conducted per protocol of the NTH Anticonvulsant Screening Program (available online from the National Institute of Neurological Disorders and Stroke—6 Hz 44 mA Psychomotor Seizure Model, Mouse). Briefly, a mouse was dosed with KRM-II-81, p.o., and 2 hr later given 6 Hz stimulation for 3 sec delivered through corneal electrodes at 44 mA and observed for the presence or absence of seizure activity. A separate group of mice was dosed with higher doses of KRM-II-81 and observed for potential deficits in motor performance and overt signs of toxicity at 4 hr post dosing.

For data set [1], the system named is human (α2), or rat (α1, α3, α5, γ2L, β3) GABAA receptor subunits. As to the kind of experiment: Whole-cell patch-clamp GABA current responses in transfected HEK-293T cells. The format is cell-based. The settings on record: GABA EC3-5, drug concentration 100 nM. The method, then:
Human […] (HEK-293T) were transiently transfected with full-length cDNAs encoding human (α2), or rat (α1, α3, α5, γ2L, β3) GABAA receptor subunits using calcium phosphate precipitation. Positively transfected cells were isolated by utilizing co-transfection of a plasmid encoding a surface antibody (pHook™-1, Invitrogen). 20-52 hours following transfection, cells were mixed with magnetic beads coated with antigen specific for the pHook antibody, isolated with a magnetic stand, and then plated onto coverslips and used for patch-clamp recordings 18-28 hours later.
Current responses to GABA were recorded in the whole-cell configuration, with cells voltage-clamped at −50 mV. The bath solution contained (in mM): 142 NaCl, 8.1 KCl, 6 MgCl2, 1 CaCl2), and 10 HEPES (4-(2-hydroxyethyl)-1-piperazineethanesulfonic acid) with pH=7.4 and osmolarity adjusted to 295-305 mOsm. The electrode (internal) solution consisted of (in mM); 153 KCl, 1 MgCl2, 5 K-EGTA (ethylene glycol-bis (β-aminoethyl ether N,N,N′N′-tetraacetate)), and 10 HEPES with pH=7.4 and osmolarity adjusted to 295-305 mOsm. […] Currents were recorded with an Axon 200B (Foster City, Calif.) patch clamp amplifier. […] Data were analyzed by two-way ANOVA followed by post-hoc Tukey's multiple comparison test. […]
(In general: In patch-clamp work, channel activity is measured electrically.)

Data set [2] relates to resected human cortical tissue from epileptic patients. Kind of data set: Human epileptic cerebral cortex slice electrophysiology. The format is cell-based. The settings on record: 30 μM. The method, then: The tissue was prepared and treated as previously described (Zwart et al., J. Pharmacal. Exp. Ther., 2014, 351:124-133). Slices were maintained at 37° C. and were perfused at 1.0 ml/min first with normal ACSF (NACSF) solution for one hour to see if the tissue was spontaneously active. […] Tissue was then recorded in EACSF with a concentration of 10 μM picrotoxin for 1 hr. Subsequently, tissue was recorded in EACSF with a concentration of 10 μM of picrotoxin with 30 μM KRM-II-81 and recorded for 1 hour. Following the KRM-II-81 addition, tissue was recorded in a washout solution of EACSF and 10 μM Picrotoxin for 1 hr. The concentration of KRM-II-81 was based upon data collected in human cortical slices with perampanel and upon the need to be conservative in concentration estimates to maximize the opportunity to see an effect given limited human tissue opportunities. A second experiment was conducted using […] (50 μM) as an activator instead of picrotoxin.
Recordings were performed on microelectrode arrays of 60 electrodes as previously described (Zwart et al., J Pharmacol. Exp. Ther., 2014, 351:124-133). LFPs with sharp negative peaks below a threshold set at 3 standard deviations of the signal were marked, and the time of the maximum excursion was recorded as the time of that LFP. Time points were binned at 4 ms. […]

Data set [3] is described as follows: Unbound plasma and brain concentrations after i.p. dosing. The format is in vivo, rats. The settings on record: for Unbound brain concentration / Unbound plasma concentration: male Sprague-Dawley rats, n=3, mean ± S.E.M. From the text: (Table 4). Using these unbound drug concentrations, the PI based on drug levels in plasma was 3 and that based upon brain drug levels was 3.8.

As to `C#Cc1ccc2c(c1)C(c1ccccn1)=NCc1c(-c3cnco3)ncn1-2` [KRM-II-81, 5-(8-ethynyl-6-(pyridin-2-yl)-4H-benzo[f]imidazo[1,5-a][1,4]diazepin-3-yl)oxazole], the Number protected/number tested in the data set with 6 Hz-induced seizures (dose 10, p.o.) is given as 0/8; in the data set with 6 Hz-induced seizures (dose 25, p.o.) it was 3/8; in the data set on 6 Hz-induced seizures (dose 50, p.o.), 7/8. The “6 Hz Potency (MED)” value with 6 Hz-induced seizures (p.o., doses 10-50 mg/kg) is 50 mg/kg. Besides, in data set [1], the “selectivity for α2 and α3 over α1” value is “selective for α2 and α 3 over α1”. In data set [2] (firing stimulated with AP-4 (50 μM), baseline 0.08±0.01), the firing rate is given as 0.01±0.005 Hz. For the same compound, the average firing rate in data set [2] (in presence of 10 μM picrotoxin, baseline 0.05±0.01 Hz) is reported as 0.01±0.005 Hz. Moreover, the figures for the Unbound brain concentration in data set [3] (17.3 mg/kg i.p.) and in data set [3] (121 mg/kg i.p.) were 1.64 ± 0.141 µM and 6.25 ± 1.652 µM, respectively. The Unbound plasma concentration worked out at 3.29 ± 0.107 µM in data set [3] (17.3 mg/kg i.p.) and 10 ± 2.147 µM in data set [3] (121 mg/kg i.p.). In addition, in data set [3] (ratio of unbound brain concentrations at 121 and 17.3 mg/kg i.p.), the “121/17.3 Ratio, brain” value is listed as 3.81. Further, the “121/17.3 Ratio, plasma” value in data set [3] (ratio of unbound plasma concentrations at 121 and 17.3 mg/kg i.p.) was determined as 3.04.
